Results published in patent publication US10822346B2, “Meglumine salts of thienopyrimidines” (Cardurion Pharmaceuticals, LLC, priority 2018, dated 2020).

Columns and labels:
[1] = Solubility in pharmaceutically acceptable formulation; format: physicochemical; conditions: in any pharmaceutically acceptable formulation
From the text: (§1) Initial studies identified thienopyrimidine carboxylic acids as PDE9 inhibitors which could be used to treat or prevent HF. […] In further studies, the potassium salt was identified as a candidate for formulation because it was soluble, provided high exposure in preclinical toxicology studies, and was relatively easy to scale up. […] Unexpectedly the monohydrate crystalline meglumine salt of the thienopyrimidine compounds afforded the desired properties for a pharmaceutical formulation, as shown in Table 5.

[2] = Solid form stability on drying under vacuum; format: physicochemical; conditions: crystalline salts; crystal form after drying
From the text: as §1

[3] = Exposure in preclinical toxicology studies; conditions: in vivo
From the text: as §1

[4] = Dog pharmacokinetic study; format: in vivo, dogs; conditions: for AUClast / Cmax / Tmax: healthy dogs, N = 4 animals/arm, fasted overnight, pentagastrin 30 min prior to dosing, mean plasma profile
Description: Healthy dogs were used to study different salt candidates to evaluate the pharmacokinetic profile of each candidate. Six treatment arms were employed:
Animals were fasted overnight with free access to water. Pentagastrin (PG) (6 μg/kg, IM) was administered 30 min prior to dosing. Food was resumed 4 h post dose.

[5] = Hygroscopicity by Dynamic Vapor Sorption; format: physicochemical; conditions: for Hygroscopicity: DVS weight gain: Dynamic Vapor Sorption @ 25° C./95% RH
From the text: as §1

Solubility (in words) [1]	SMILES	Stability: Drying under vaccum @50 for 36 hrs [2]	Exposure in preclinical toxicology studies (in words) [3]	AUClast [4] [ng·h/mL]	Cmax [4] [ng/mL]	Tmax [4] [h]	Hygroscopicity: DVS weight gain [5]	Pharmacokinetic profile (in words) ([4]; dogs, compared with other salts)	Exposure compared with free acid and potassium salt dosed as solutions (in words) ([4]; dogs, powder in a capsule (PIC))	Hygroscopicity (in words) [5]
soluble	[K+] [Potassium]	changes	high exposure	966	398	1.25	8-22.5%	–	–	–
–	CNCC(O)C(O)C(O)C(O)CO.Cc1c(C(=O)O)sc2nc(Cc3ccc(Cl)c(Cl)c3)[nH]c(=O)c12.O [compound 4, meglumine 2-(3,4-dichlorobenzyl)-5-methyl-4-oxo-3,4-dihydrothieno[2,3-d]pyrimidine-6-carboxylate monohydrate]	unchanged	–	1008	280	1.13	0.7%	superior pharmacokinetic profile	comparable exposure	low hygroscopicity
–	Cc1c(C(=O)O)sc2nc(Cc3ccc(Cl)c(Cl)c3)[nH]c(=O)c12.N=C(N)NCCC[C@H](N)C(=O)O [compound 8, arginine 2-(3,4-dichlorobenzyl)-5-methyl-4-oxo-3,4-dihydrothieno[2,3-d]pyrimidine-6-carboxylate]	changes	–	705	246	1.38	5.9%	–	–	–
–	Cc1c(C(=O)O)sc2nc(Cc3ccc(Cl)c(Cl)c3)[nH]c(=O)c12.NCCCC[C@H](N)C(=O)O [compound 9, lysine 2-(3,4-dichlorobenzyl)-5-methyl-4-oxo-3,4-dihydrothieno[2,3-d]pyrimidine-6-carboxylate]	changes	–	495	78.4	3.50	6.4%	–	–	–
